# Measurements as given in patent US8647827B2, “Fluorescent substrates for neurotransmitter transporters” (Vanderbilt University, priority 2006, dated 2014).
# Like-named read-outs stand apart in the source and are kept apart here.
# What was measured:
# NET [1] = molecular target: T1, NET (Homo sapiens, UniProt P23975); details: previously reported, U.S. Publication No. 20040115703; cited from earlier work
# SERT [2] = molecular target: T2, SERT (Homo sapiens, UniProt P31645); details: cited from earlier work
# Target sequence in this assay (P31645 whole entry, species assumed): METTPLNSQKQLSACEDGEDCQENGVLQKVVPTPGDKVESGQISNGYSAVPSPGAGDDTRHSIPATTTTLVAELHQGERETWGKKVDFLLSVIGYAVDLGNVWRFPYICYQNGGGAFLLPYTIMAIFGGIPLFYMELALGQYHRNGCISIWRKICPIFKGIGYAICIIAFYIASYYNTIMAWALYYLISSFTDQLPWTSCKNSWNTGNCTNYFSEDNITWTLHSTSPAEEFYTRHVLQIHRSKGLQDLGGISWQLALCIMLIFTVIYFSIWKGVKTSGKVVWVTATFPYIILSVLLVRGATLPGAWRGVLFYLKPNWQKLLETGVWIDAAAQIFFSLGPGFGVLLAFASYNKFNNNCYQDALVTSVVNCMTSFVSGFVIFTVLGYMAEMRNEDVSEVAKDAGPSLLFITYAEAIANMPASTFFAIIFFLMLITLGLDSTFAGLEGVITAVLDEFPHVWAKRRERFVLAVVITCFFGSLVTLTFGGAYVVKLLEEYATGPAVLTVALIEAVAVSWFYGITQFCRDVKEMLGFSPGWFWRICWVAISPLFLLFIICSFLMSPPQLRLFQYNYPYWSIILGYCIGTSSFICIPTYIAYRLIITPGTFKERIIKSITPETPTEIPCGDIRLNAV
# DAT [3] = molecular target: DAT (Homo sapiens, UniProt Q01959); details: previously reported, U.S. Publication No. 20040115703; cited from earlier work
# Sequence of DAT (Homo sapiens, UniProt Q01959) (Q01959 whole entry, species assumed): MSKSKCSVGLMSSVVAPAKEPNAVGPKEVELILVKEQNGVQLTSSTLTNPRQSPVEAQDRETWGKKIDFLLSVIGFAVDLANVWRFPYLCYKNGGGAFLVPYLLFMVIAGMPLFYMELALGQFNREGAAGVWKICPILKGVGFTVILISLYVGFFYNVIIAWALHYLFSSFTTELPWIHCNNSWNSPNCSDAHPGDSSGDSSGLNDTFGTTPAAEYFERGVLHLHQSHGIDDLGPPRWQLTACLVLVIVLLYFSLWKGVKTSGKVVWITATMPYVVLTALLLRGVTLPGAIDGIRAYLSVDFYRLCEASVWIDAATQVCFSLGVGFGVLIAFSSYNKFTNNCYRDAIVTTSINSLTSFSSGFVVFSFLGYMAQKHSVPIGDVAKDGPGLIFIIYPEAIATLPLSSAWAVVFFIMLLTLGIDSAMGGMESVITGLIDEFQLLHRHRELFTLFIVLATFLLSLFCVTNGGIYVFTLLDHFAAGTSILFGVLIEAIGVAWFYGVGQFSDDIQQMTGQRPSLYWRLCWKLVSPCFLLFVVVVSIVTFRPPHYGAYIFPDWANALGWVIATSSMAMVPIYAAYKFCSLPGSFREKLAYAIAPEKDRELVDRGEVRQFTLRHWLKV
# SERT [4] = molecular target: T2, SERT; test: [3H]5-HT uptake inhibition in LLC cells stably expressing hSERT; format: cell-based; parameters: expressed in transfected cells; details: [3H]5-HT 30 nM, 5 min at 37° C.
# Protocol: FIG. 2—[^3H]5-HT uptake inhibition by IDT307 of SERT. […] LLC cells stably expressing hSERT were incubated with [^3H]5-HT (30 nM) in the presence of increasing concentrations of IDT307 (10^−12 to 10^−3) for 5 min at 37° C. Specific uptake was defined as total uptake minus uptake in the presence of the inhibitor paroxetine 1 μM.
# Target sequence in this assay (P31645 whole entry): as the sequence (P31645 whole entry, species assumed) above
# DAT [5] = molecular target: T3, DAT (Rattus norvegicus, UniProt P23977); test: IDT307 accumulation/transport by fluorescence, DAT; format: cell-based
# T3 construct: expressed in transfected cells; host or cells: LLC cells
# T3 sequence (P23977 whole entry): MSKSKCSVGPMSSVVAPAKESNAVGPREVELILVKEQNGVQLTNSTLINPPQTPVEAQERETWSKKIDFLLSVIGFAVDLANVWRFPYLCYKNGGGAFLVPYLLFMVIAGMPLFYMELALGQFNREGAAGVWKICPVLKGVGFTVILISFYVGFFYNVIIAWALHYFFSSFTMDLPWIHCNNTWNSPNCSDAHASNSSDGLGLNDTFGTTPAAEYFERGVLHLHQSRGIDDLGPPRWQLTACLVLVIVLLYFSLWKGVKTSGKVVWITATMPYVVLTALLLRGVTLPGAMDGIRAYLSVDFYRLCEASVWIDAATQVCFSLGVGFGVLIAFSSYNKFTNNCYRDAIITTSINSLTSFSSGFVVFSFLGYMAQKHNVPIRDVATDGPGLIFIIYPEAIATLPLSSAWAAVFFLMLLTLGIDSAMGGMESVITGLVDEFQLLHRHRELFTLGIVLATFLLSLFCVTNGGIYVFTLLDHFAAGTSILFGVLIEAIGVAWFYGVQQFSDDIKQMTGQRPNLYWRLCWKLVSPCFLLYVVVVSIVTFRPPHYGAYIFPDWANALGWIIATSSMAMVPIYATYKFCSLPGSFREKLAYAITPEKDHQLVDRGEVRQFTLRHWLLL
# Protocol: (§1) FIG. 7—Imaging IDT307 with Zeiss LSM-510 Confocal Meta Detector. LLC Cells expressing rDAT were exposed to 10 μM IDT307 for 1 hr before rinsing with KRH buffer and imaging with a Zeiss LSM-510 confocal microscope using the meta detector. Quantification of fluorescence at each wavelength for selected regions of interest was performed using ImageJ analysis software.
# (§2) 4-(4-(dimethylamino)phenyl)-1-methylpyridinium iodide, referred to herein as IDT307, is a dye with optical activity that has been discussed by a number of different researchers (Bulgarevich et al., 1992; Kuo, 1978; Coe et al., 2003; Zauhar et al., 1995; Lyapustina et al., 1993). […] IDT307 fluorescent microscopy permits localization of transport activity in single cells and neuronal processes. The IDT307 fluorescent microscopy methods of the invention also permits analysis of many cells, while retaining information about single cells. The IDT307 fluorescence assays of the invention provide detailed mechanistic information about transport. For example, temporal and spatial resolution of transport, transport kinetics, affinity for substrate, turnover rates, surface expression, and binding constants may be measured. Furthermore, features such as voltage dependence of neurotransmitter accumulation can be assessed under voltage clamp using IDT307 fluorescent microscopy.
# NET [6] = molecular target: T1, NET; test: IDT307 accumulation/transport by time-resolved fluorescence microscopy in HEK cells expressing hNET; format: cell-based; parameters: expressed in transfected cells; host or cells: HEK cells
# Source text: as §2
# Fluorescent microscopy is used to measure transport using IDT307 which is a fluorescent substrate for several neurotransmitter transporters. Cells that either endogenously or exogenously express a […] are isolated and plated on glass bottom Petri-dishes or multi-well plates that may typically be coated with poly-L-lysine or any other cell adhesive agent. Cells are typically cultured for three or more days. […]
# SERT [7] = molecular target: T2, SERT; test: IDT307 accumulation/transport by fluorescence, SERT; format: cell-based; parameters: expressed in transfected cells
# Protocol: FIG. 3—IDT307 accumulation using a FlexStation™ fluorimeter. IDT307 accumulation using the FlexStation fluorimeter (excitation 440 nm/emission filter 595 nm). LLC non-transfected and hSERT expressing (control) cells were cultured in separate wells of a 96-well plate until confluent. The accumulation of IDT307 (10 μM) in these wells was then monitored in the presence and absence of paroxetine (1 μM) using the FlexStation.
# FIGS. 5A-C—Kinetics of IDT307 accumulation in hSERT using the FlexStation™ fluorimeter. Kinetics of IDT307 accumulation in hSERT using the FlexStation fluorimeter. hSERT expressing cells were cultured in wells of a 96-well plate until confluent. […] SERT specific accumulation for each concentration of IDT307 was then calculated from specific uptake values (total uptake—inhibitor treated uptake).
# 4-(4-(dimethylamino)phenyl)-1-methylpyridinium iodide, referred to herein as IDT307, is a dye with optical activity that has been discussed by a number of different researchers (Bulgarevich et al., 1992; Kuo, 1978; Coe et al., 2003; Zauhar et al., 1995; Lyapustina et al., 1993). […] The IDT307 fluorescence assays of the invention provide detailed mechanistic information about transport. For example, temporal and spatial resolution of transport, transport kinetics, affinity for substrate, turnover rates, surface expression, and binding constants may be measured. […]
# Target sequence in this assay (P31645 whole entry): as the sequence (P31645 whole entry, species assumed) above
# [8] = Fluorescence spectra of intracellular IDT307; format: physicochemical
# Protocol: as §1
# FIG. 8—Fluorescence Spectra of Intracellular IDT307. IDT307 maximum absorption=420 nm, maximum emission=510 nm.
# T1 sequence (P23975 whole entry): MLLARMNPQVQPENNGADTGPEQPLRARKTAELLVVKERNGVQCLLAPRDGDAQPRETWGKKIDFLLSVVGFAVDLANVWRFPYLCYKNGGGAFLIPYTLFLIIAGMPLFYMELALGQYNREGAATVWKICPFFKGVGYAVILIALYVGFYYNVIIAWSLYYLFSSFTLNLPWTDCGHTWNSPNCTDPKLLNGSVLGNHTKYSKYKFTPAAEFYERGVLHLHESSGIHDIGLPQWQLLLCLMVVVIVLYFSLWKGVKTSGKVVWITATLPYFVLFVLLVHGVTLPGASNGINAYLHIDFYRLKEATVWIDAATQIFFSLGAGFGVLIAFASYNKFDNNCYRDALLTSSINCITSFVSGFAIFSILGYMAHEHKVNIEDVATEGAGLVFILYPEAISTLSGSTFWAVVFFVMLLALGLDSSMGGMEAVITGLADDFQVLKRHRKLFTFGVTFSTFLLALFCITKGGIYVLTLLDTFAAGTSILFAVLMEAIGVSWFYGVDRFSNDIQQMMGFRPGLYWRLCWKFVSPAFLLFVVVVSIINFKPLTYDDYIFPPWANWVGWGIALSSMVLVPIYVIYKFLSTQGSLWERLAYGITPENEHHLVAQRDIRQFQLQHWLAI
Compound,transport by NET (NET [1]),effectiveness as a substrate for the serotonin transporter (SERT [2]),"transport by SERT (SERT [2]; previously reported, U.S. Publication No. 20040115703)",transport by DAT (DAT [3]),[3H]5-HT uptake inhibition (SERT [4]),potency of IDT307 accumulation for DAT (DAT [5]),transport by DAT (DAT [5]),potency of IDT307 accumulation for hNET (NET [6]),transport by NET (NET [6]),potency of IDT307 accumulation for SERT (SERT [7]),transport by SERT (SERT [7]),maximum absorption [8] [nm],maximum emission [8] [nm]
"CN(C)c1ccc(C=Cc2cc[n+](C)cc2)cc1 [ASP^+, 4-(4-dimethylaminostyrl)-N-methylpyridinium]",transported,only minimally effective as a substrate,transported,transported,–,–,–,–,–,–,–,–,–
"CN(C)c1ccc(-c2cc[n+](C)cc2)cc1.[I-] [IDT307, 4-(4-(dimethylamino)phenyl)-1-methylpyridinium iodide]",–,–,–,–,competes for [^3H]5-HT uptake,sub-mM potency,transported,sub-mM potency,transported,sub-mM potency,transported,420,510
